We go through 3 molecules from patent US20130184321A1, “Model Mouse of Attention Deficit Hyperactivity Disorder, Method for Investigating Effects for Preventing and Alleviating Attention Disorder using the Model Mouse, and Method for Treating Attention Disorder by Suppressing T-Type Calcium Channel” (KOREA ADVANCED INSTITUTE OF SCIENCE AND TECHNOLOGY, priority 2010, published 2013).

The test system of the test is ADHD animal model implanted with cobalt wire. In words: Changes in brain wave (EEG spikes) of ADHD animal model by T-type calcium channel blocker. The test is classed as in vivo, mouse. The settings on record: cobalt wire implanted 7~9 days earlier, brain wave observed for one hour; for spikes observed in the frontal lobe, after vs before treatment: P<0.05.

Protocol: Particularly, to construct the ADHD mouse model, 0.2% avertin in 20 mg/ml of tribromoethanol was administered to the mouse by intraperitoneal injection (i.p.) to anesthetize it. The head of the mouse (B6 mouse at 10˜20 weeks) was fixed on stereotaxic (David Kopf Instruments, Germany) and then cobalt wire (Alfa Aesar) was inserted therein by using holder, a part of stereotaxic. Cobalt wire (Alfa Aesar) of 500 μm in the diameter was inserted radially (vertical direction to the cortical surface) in the location of anteroposteriorally 2.6 mm, laterally 1.8 mm, and ventrally 1.3 mm in the right dorsolateral frontal lobe.
For the record of EEG, epidural electrode was inserted in the right frontal lobe where the cobalt wire was inserted. Other electrodes were inserted in the left frontal lobe and temporal lobe. Particularly, the location for the insertion in the right frontal lobe was anteroposteriorally 2.8 mm and laterally 0.8 mm and the location in the left frontal lobe was anteroposteriorally 2.8 mm and laterally 0.8 mm. […]
After three days of recovery, EEG signals and video images were recorded for 30 days. […]
Particularly, 150 mg/kg of ethosuximide (Sigma-Aldrich, USA) was administered in the abdominal cavity of the ADHD animal model implanted with cobalt wire 7˜9 days earlier, followed by observation of the changes in brain wave for one hour. The mice were placed in the test room having square bottom where they could move freely and brain waves were being recorded from 30 minutes before the ethosuximide administration. The number of spikes was measured before and after the treatment of ethosuximide.
60 mg/kg of zonisamide (Sigma-Aldrich, USA) and 100 mg/kg of phyenytoin (Sigma-Aldrich, USA) were administered respectively in the abdominal cavity of the ADHD animal model implanted with cobalt wire 7˜9 days earlier, followed by observation of the changes in brain wave for one hour. The mice were placed in the test room having square bottom where they could move freely and brain waves were being recorded from 30 minutes before the ethosuximide administration. […]

With `NS(=O)(=O)Cc1noc2ccccc12` [zonisamide], for the setting “60 mg/kg in the abdominal cavity”, the “spikes observed in the frontal lobe, after vs before treatment” value is listed as “significantly reduced”.

On to `O=C1NC(=O)C(c2ccccc2)(c2ccccc2)N1` [phyenytoin], for which, where the note is “100 mg/kg in the abdominal cavity”, the “spikes observed in the frontal lobe, after vs before treatment” value is given as “significantly reduced”.

With `CCC1(C)CC(=O)NC1=O` (stereo not drawn) [ethosuximide], the “number of spikes observed in the frontal lobe, after vs before treatment” value (150 mg/kg in the abdominal cavity) is “significantly reduced”.
